In patent US10206394B2, “Herbicidal compounds” (Syngenta Participations AG, priority 2014, dated 2019):
Where two headings read alike, the source gives them in different places.

Key:
Experiment in all cases: Glasshouse assay for herbicidal activity (pre- and post-emergence), percentage phytotoxicity
Type in all cases: in vivo
[1] = test system: Echinochloa crus-galli (ECHCG); details: Echinochloa crus-galli
Description: (§1) Test—Glasshouse Assay for Herbicidal Activity
(§2) Seeds of a variety of monocotyledonous and dicotyledonous test plants are sown in standard soil in pots. The plants are cultivated for one day (for pre-emergence (PRE)) or for about 12 days (for post-emergence (POST)) under controlled conditions in a glasshouse (warm climate species at 24/18° C., cool climate species at 20/16° C., both at day/night; 16 hours light; 65% humidity).
(§3) The test plants are then grown on, in a glasshouse (greenhouse) under controlled conditions (warm climate species at 24/18° C., cool climate species at 20/16° C., both at day/night; 16 hours light; 65% humidity) and are watered twice daily. 15 days after application of the test herbicide (15 DAA) (for post-emergence), and 20 days after application of the test herbicide (20 DAA) (for pre-emergence), the test plants are evaluated visually, and an assessed percentage phytotoxicity score is given for each herbicidal application on each plant species (with 100%=total damage to plant; 0%=no damage to plant).
(§4) The plant species tested are as follows: Alopecurus myosuroides (ALOMY), Avena fatua (AVEFA), Lolium perenne (LOLPE), Echinochloa crus-galli (ECHCG).

Avena fatua (AVEFA) = details: Avena fatua
Description: as §1, §2, §3, §4

[2] = test system: Alopecurus myosuroides (ALOMY); details: Alopecurus myosuroides
Description: as §1, §2, §3, §4

Lolium perenne (LOLPE) = details: Lolium perenne
Description: as §1, §2, §3, §4

[3] = post-emergence, 360 h, POST-emergence, rate 250 g/ha, visual score 15 DAA (100%=total damage, 0%=no damage), read-out: Post-emergence herbicidal activity (percentage phytotoxicity) ECHCG POST
[4] = pre-emergence, 480 h, PRE-emergence, rate 250 g/ha, visual score 20 DAA (100%=total damage, 0%=no damage), read-out: Pre-emergence herbicidal activity (percentage phytotoxicity) ECHCG PRE
[5] = post-emergence, 360 h, POST-emergence, rate 250 g/ha, visual score 15 DAA (100%=total damage, 0%=no damage), read-out: Post-emergence herbicidal activity (percentage phytotoxicity) AVEFA POST
[6] = pre-emergence, 480 h, PRE-emergence, rate 250 g/ha, visual score 20 DAA (100%=total damage, 0%=no damage), read-out: Pre-emergence herbicidal activity (percentage phytotoxicity) AVEFA PRE
[7] = post-emergence, 360 h, POST-emergence, rate 250 g/ha, visual score 15 DAA (100%=total damage, 0%=no damage), read-out: Post-emergence herbicidal activity (percentage phytotoxicity) ALOMY POST
[8] = pre-emergence, 480 h, PRE-emergence, rate 250 g/ha, visual score 20 DAA (100%=total damage, 0%=no damage), read-out: Pre-emergence herbicidal activity (percentage phytotoxicity) ALOMY PRE
[9] = post-emergence, 360 h, POST-emergence, rate 250 g/ha, visual score 15 DAA (100%=total damage, 0%=no damage), read-out: Post-emergence herbicidal activity (percentage phytotoxicity) LOLPE POST
[10] = pre-emergence, 480 h, PRE-emergence, rate 250 g/ha, visual score 20 DAA (100%=total damage, 0%=no damage), read-out: Pre-emergence herbicidal activity (percentage phytotoxicity) LOLPE PRE
[11] = post-emergence, 360 h, Rate 250 g/ha, post-emergence, assessed visually 15 DAA, 100%=total damage, 0%=no damage, read-out: Post-emergence herbicidal activity (percentage phytotoxicity) ECHCG POST
[12] = pre-emergence, 480 h, Rate 250 g/ha, pre-emergence, assessed visually 20 DAA, 100%=total damage, 0%=no damage, read-out: Pre-emergence herbicidal activity (percentage phytotoxicity) ECHCG PRE
[13] = post-emergence, 360 h, Rate 250 g/ha, post-emergence, assessed visually 15 DAA, 100%=total damage, 0%=no damage, read-out: Post-emergence herbicidal activity (percentage phytotoxicity) AVEFA POST
[14] = pre-emergence, 480 h, Rate 250 g/ha, pre-emergence, assessed visually 20 DAA, 100%=total damage, 0%=no damage, read-out: Pre-emergence herbicidal activity (percentage phytotoxicity) AVEFA PRE
[15] = post-emergence, 360 h, Rate 250 g/ha, post-emergence, assessed visually 15 DAA, 100%=total damage, 0%=no damage, read-out: Post-emergence herbicidal activity (percentage phytotoxicity) ALOMY POST
[16] = pre-emergence, 480 h, Rate 250 g/ha, pre-emergence, assessed visually 20 DAA, 100%=total damage, 0%=no damage, read-out: Pre-emergence herbicidal activity (percentage phytotoxicity) ALOMY PRE
[17] = post-emergence, 360 h, Rate 250 g/ha, post-emergence, assessed visually 15 DAA, 100%=total damage, 0%=no damage, read-out: Post-emergence herbicidal activity (percentage phytotoxicity) LOLPE POST
[18] = pre-emergence, 480 h, Rate 250 g/ha, pre-emergence, assessed visually 20 DAA, 100%=total damage, 0%=no damage, read-out: Pre-emergence herbicidal activity (percentage phytotoxicity) LOLPE PRE

Structure (SMILES) | pest or weed control at 250 g/ha [1, 11] [%] | pest or weed control at 250 g/ha [1, 12] [%] | pest or weed control at 250 g/ha (Avena fatua (AVEFA); [13]) [%] | pest or weed control at 250 g/ha (Avena fatua (AVEFA); [14]) [%] | pest or weed control at 250 g/ha [2, 15] [%] | pest or weed control at 250 g/ha [2, 16] [%] | pest or weed control at 250 g/ha (Lolium perenne (LOLPE); [17]) [%] | pest or weed control at 250 g/ha (Lolium perenne (LOLPE); [18]) [%] | further results
CC(C)=CNC(=O)CC1CC(=O)C(c2c(C)cc(-c3ccc(C#N)cn3)cc2C)C1=O (centres unmarked) [Compound B319] |  |  |  |  |  |  |  |  | pest or weed control at 250 g/ha [1, 3]: 100%; pest or weed control at 250 g/ha [1, 4]: 0%; pest or weed control at 250 g/ha (Avena fatua (AVEFA); [5]): 80%; pest or weed control at 250 g/ha (Avena fatua (AVEFA); [6]): 0%; pest or weed control at 250 g/ha [2, 7]: 70%; pest or weed control at 250 g/ha [2, 8]: 0%; pest or weed control at 250 g/ha (Lolium perenne (LOLPE); [9]): 60%; pest or weed control at 250 g/ha (Lolium perenne (LOLPE); [10]): 0%
Cc1cc(Br)cc(C)c1C1C(=O)CC(CC(=O)NC(C)C)C1=O (centres unmarked) [Compound B140] |  |  |  |  |  |  |  |  | pest or weed control at 250 g/ha ([1]; post-emergence, 360 h, 250 g/ha, post-emergence, 15 DAA, visual assessment (100%=total damage, 0%=no damage), read-out: Post-emergence herbicidal activity (percentage phytotoxicity) ECHCG POST): 80%; pest or weed control at 250 g/ha ([1]; pre-emergence, 480 h, 250 g/ha, pre-emergence, 20 DAA, visual assessment (100%=total damage, 0%=no damage), read-out: Pre-emergence herbicidal activity (percentage phytotoxicity) ECHCG PRE): 70%; pest or weed control at 250 g/ha (Avena fatua (AVEFA); post-emergence, 360 h, 250 g/ha, post-emergence, 15 DAA, visual assessment (100%=total damage, 0%=no damage), read-out: Post-emergence herbicidal activity (percentage phytotoxicity) AVEFA POST): 90%; pest or weed control at 250 g/ha (Avena fatua (AVEFA); pre-emergence, 480 h, 250 g/ha, pre-emergence, 20 DAA, visual assessment (100%=total damage, 0%=no damage), read-out: Pre-emergence herbicidal activity (percentage phytotoxicity) AVEFA PRE): 80%; pest or weed control at 250 g/ha ([2]; post-emergence, 360 h, 250 g/ha, post-emergence, 15 DAA, visual assessment (100%=total damage, 0%=no damage), read-out: Post-emergence herbicidal activity (percentage phytotoxicity) ALOMY POST): 90%; pest or weed control at 250 g/ha ([2]; pre-emergence, 480 h, 250 g/ha, pre-emergence, 20 DAA, visual assessment (100%=total damage, 0%=no damage), read-out: Pre-emergence herbicidal activity (percentage phytotoxicity) ALOMY PRE): 90%; pest or weed control at 250 g/ha (Lolium perenne (LOLPE); post-emergence, 360 h, 250 g/ha, post-emergence, 15 DAA, visual assessment (100%=total damage, 0%=no damage), read-out: Post-emergence herbicidal activity (percentage phytotoxicity) LOLPE POST): 90%; pest or weed control at 250 g/ha (Lolium perenne (LOLPE); pre-emergence, 480 h, 250 g/ha, pre-emergence, 20 DAA, visual assessment (100%=total damage, 0%=no damage), read-out: Pre-emergence herbicidal activity (percentage phytotoxicity) LOLPE PRE): 90%
Cc1cc(-c2ccc(Cl)nn2)cc(C)c1C1C(=O)CC(CC(=O)NCc2cccs2)C1=O (centres unmarked) [Compound A151] | 70 | 100 | 50 | 70 | 40 | 40 | 40 | 80 | 
Cc1cc(-c2ncc(F)cn2)cc(C)c1C1C(=O)CC(CC(=O)NC(C)C)C1=O (centres unmarked) [Compound B275] |  |  |  |  |  |  |  |  | pest or weed control at 250 g/ha [1, 3]: 100%; pest or weed control at 250 g/ha [1, 4]: 100%; pest or weed control at 250 g/ha (Avena fatua (AVEFA); [5]): 100%; pest or weed control at 250 g/ha (Avena fatua (AVEFA); [6]): 100%; pest or weed control at 250 g/ha [2, 7]: 100%; pest or weed control at 250 g/ha [2, 8]: 100%; pest or weed control at 250 g/ha (Lolium perenne (LOLPE); [9]): 100%; pest or weed control at 250 g/ha (Lolium perenne (LOLPE); [10]): 100%
Cc1cc(C)c(C2C(=O)CC(CC(=O)NCc3cccc(C(F)(F)F)c3)C2=O)c(C)c1 (centres unmarked) [Compound A89] | 100 | 100 | 90 | 60 | 90 | 90 | 100 | 90 | 
Cc1cc(C)c(C2C(=O)CC(CC(=O)NCc3ccc(C(F)(F)F)nc3)C2=O)c(C)c1 (centres unmarked) [Compound A98] | 60 | 80 | 90 | 20 | 90 | 100 | 80 | 80 | 
Cc1cc(-c2ccc(F)cc2)cc(C)c1C1C(=O)CC(CC(=O)NC(C)C)C1=O (centres unmarked) [Compound A34, 2-[3-[4-(4-fluorophenyl)-2,6-dimethyl-phenyl]-2,4-dioxo-cyclopentyl]-N-isopropyl-acetamide] | 100 | 100 | 100 | 100 | 100 | 100 | 100 | 100 | 
Cc1cc(-c2ccc(Cl)cn2)cc(C)c1C1C(=O)CC(CC(=O)NC(C)C)C1=O (centres unmarked) [Compound B360] |  |  |  |  |  |  |  |  | pest or weed control at 250 g/ha ([1]; post-emergence, 360 h, Rate 250 g/ha, post-emergence, visual assessment 15 DAA, 100%=total damage, 0%=no damage, read-out: Post-emergence herbicidal activity (percentage phytotoxicity) ECHCG POST): 100%; pest or weed control at 250 g/ha ([1]; pre-emergence, 480 h, Rate 250 g/ha, pre-emergence, visual assessment 20 DAA, 100%=total damage, 0%=no damage, read-out: Pre-emergence herbicidal activity (percentage phytotoxicity) ECHCG PRE): 100%; pest or weed control at 250 g/ha (Avena fatua (AVEFA); post-emergence, 360 h, Rate 250 g/ha, post-emergence, visual assessment 15 DAA, 100%=total damage, 0%=no damage, read-out: Post-emergence herbicidal activity (percentage phytotoxicity) AVEFA POST): 100%; pest or weed control at 250 g/ha (Avena fatua (AVEFA); pre-emergence, 480 h, Rate 250 g/ha, pre-emergence, visual assessment 20 DAA, 100%=total damage, 0%=no damage, read-out: Pre-emergence herbicidal activity (percentage phytotoxicity) AVEFA PRE): 100%; pest or weed control at 250 g/ha ([2]; post-emergence, 360 h, Rate 250 g/ha, post-emergence, visual assessment 15 DAA, 100%=total damage, 0%=no damage, read-out: Post-emergence herbicidal activity (percentage phytotoxicity) ALOMY POST): 100%; pest or weed control at 250 g/ha ([2]; pre-emergence, 480 h, Rate 250 g/ha, pre-emergence, visual assessment 20 DAA, 100%=total damage, 0%=no damage, read-out: Pre-emergence herbicidal activity (percentage phytotoxicity) ALOMY PRE): 100%; pest or weed control at 250 g/ha (Lolium perenne (LOLPE); post-emergence, 360 h, Rate 250 g/ha, post-emergence, visual assessment 15 DAA, 100%=total damage, 0%=no damage, read-out: Post-emergence herbicidal activity (percentage phytotoxicity) LOLPE POST): 100%; pest or weed control at 250 g/ha (Lolium perenne (LOLPE); pre-emergence, 480 h, Rate 250 g/ha, pre-emergence, visual assessment 20 DAA, 100%=total damage, 0%=no damage, read-out: Pre-emergence herbicidal activity (percentage phytotoxicity) LOLPE PRE): 100%
CC#Cc1cc(C)c(C2C(=O)CC(CC(=O)NCC(C)C)C2=O)c(C)c1 (centres unmarked) [Compound A30] | 100 | 100 | 100 | 100 | 100 | 100 | 100 | 100 | 
Cc1cc(C)c(C2C(=O)CC(CC(=O)NCc3ccccc3C#N)C2=O)c(C)c1 (centres unmarked) [Compound A108] | 20 | 30 | 60 | 0 | 0 | 0 | 60 | 80 | 
